Assays:
[1] = Phase 2 clinical study, safety: blood chemistry (alanine and aspartate aminotransferase in subjects' blood); assay type: in vivo, human; details: combined placebo and Compound 1 patients
From the text: (§1) The study is to be configured as a placebo-controlled, double-masked, randomized, Phase 2 study in approximately 100 subjects with moderately severe to severe NPDR (diabetic retinopathy severity score [DRSS] Level 47 or 53, see FIG. 1) or mild PDR (DRSS Level 61), evaluating safety and efficacy following administration of Compound 1 twice daily for 24 weeks. The study will have a 1:1 randomization (placebo: Compound 1). Randomization will be stratified by level of disease severity (NPDR or PDR). Subjects with mild PDR will be capped at 20% for each arm. Efficacy evaluations at 12 and/or 24 weeks will include DRSS, center-involved diabetic macular edema (DME), moderate PDR or PDR-related adverse events (AEs), best-corrected visual acuity (BCVA), and central subfield thickness (CST). Further experimental procedures and results are described below.
(§2) At the Qualification/Baseline (Visit 2, Day 1): • The subject will be randomized into the study. • Study medication will be dispensed in accordance with the subjects randomized treatment arm. • Blood samples will be drawn pre-dose for baseline levels and on Visit 9 (Week 24) for exploratory biomarker processing (i.e., cytokine and Ref-1 levels) to evaluate pharmacodynamic properties. • Subjects will be instructed to administer their study medication (APX3330 or placebo) cach day, with 3 tablets every morning and 2 tablets every evening. Study medication should be taken at approximately the same time each day and may be taken with or without food.
At the Second Treatment Visit (Visit 6, Week 12±2 Days), subjects will return to the site for the following series of safety and efficacy assessments: drug accountability, concomitant medications, urine pregnancy test (only for women of childbearing potential), HR/BP/vital signs, BCVA (ETDRS), DRSS, CST (SD-OCT), blood draw for PK, blood chemistry, blood hematology, biomicroscopy, ophthalmoscopy, IOP, eGFR, and AEs. Following the completion of the assessments, used medication kits will be collected for accountability (by counting the number of unused tablets), and new study medication kits will be dispensed.
At the Third Treatment Visit (Visit 9, Week 24±2 Days), subjects will return to the site for the following series of safety and efficacy assessments: drug accountability, concomitant medications, urine pregnancy test (only for women of childbearing potential), physical examination, HR/BP/vital signs, BCVA (ETDRS), DRSS, CST (SD-OCT), blood chemistry, blood hematology, biomicroscopy, ophthalmoscopy, IOP, cGFR, AEs, and blood draw for exploratory biomarkers (ELISA, cytokine panel, comprehensive metabolic panel). Visit 9 (Week 24) is the end of the treatment period. Study medication will be returned for accountability (by counting the number of unused tablets), and no further study medication will be dispensed.
Study subjects will receive study medication as set forth in Table 1 according to the Treatment Group to which the subject is assigned. Subjects will be instructed to take study medication at approximately the same time each day, and the medication may be taken with or without food. […]

[2] = Phase 2 clinical study, safety: treatment-emergent adverse events; assay type: in vivo, human
From the text: as §1, §2
Telephone safety calls will be conducted for Visit 3 (Week 1±2 Days), Visit 5 (Week 8±2 Days), Visit 7 (Week 16±2 Days), and Visit 8 (Week 20±2 Days). The safety assessment will include review of drug compliance, concomitant medications, AEs, and urine pregnancy test at home (only for women of childbearing potential).
Study subjects will receive study medication as set forth in Table 1 according to the Treatment Group to which the subject is assigned. […]

CCCCCCCCC/C(=C\C1=C(C)C(=O)C(OC)=C(OC)C1=O)C(=O)O [Compound 1, (E)-2-((4,5-dimethoxy-2-methyl-3,6-dioxocyclohexa-1,4-dien-1-yl)methylene)undecanoic acid]
change in mean concentration of alanine aminotransferase in subjects' blood relative to Baseline ([1]; week 12, 50 subjects): −0.8 IU/L
change in mean concentration of aspartate aminotransferase in subjects' blood relative to Baseline ([1]; week 12, 50 subjects): −0.5 IU/L
reduction in mean concentration of alanine aminotransferase in subjects' blood relative to Baseline ([1]; week 12, 50 subjects): 3.6%
reduction in mean concentration of aspartate aminotransferase in subjects' blood relative to Baseline ([1]; week 12, 50 subjects): 3%
change in mean concentration of alanine aminotransferase in subjects' blood relative to Baseline ([1]; week 24, 22 subjects): −2.1 IU/L
change in mean concentration of aspartate aminotransferase in subjects' blood relative to Baseline ([1]; week 24, 22 subjects): −1.8 IU/L
reduction in mean concentration of alanine aminotransferase in subjects' blood relative to Baseline ([1]; week 24, 22 subjects): 9.4%
reduction in mean concentration of aspartate aminotransferase in subjects' blood relative to Baseline ([1]; week 24, 22 subjects): 9%
safety profile in the patient population enrolled ([2]; Compound 1 administered orally according to the study protocol (600 mg/day)): good safety profile
total of treatment-emergent adverse events observed ([2]; from the 100 subjects enrolled, combined placebo and Compound 1 patients): 83
subjects that reported at least one treatment-emergent adverse event ([2]; of 100 subjects enrolled, combined placebo and Compound 1 patients): 41

— patent US20240216315A1, “METHODS AND COMPOSITIONS FOR TREATMENT OF DIABETIC RETINOPATHY AND RELATED CONDITIONS” (Ocuphire Pharma, Inc., priority 2021, published 2024)
